Reference: patent publication US20090035815A1, “Synthetic Gene for Enhanced Expression in E. Coli” (priority 2007, published 2009)

Test system: PC-12 cells
Assay: In-vitro bioassay of recombinant Nesiritide: cGMP induction in PC-12 cells
Assay type: cell-based, Rat
Conditions: 30 mins
Excerpt: In all five batches of Nesiritide of the present invention, the cGMP induction in PC-12 cells the Nesiritide concentration (nM) is directly proportional to the concentration of Nesiritide used in culture. Culture format: 24-well plate; Cells used: PC-12 cells (Rat adrenal pheochromocytoma); no. of cells plated: 1.0×10^6 cells per well; Parameter measured: cGMP from cell lysate; Method used: Competitive Inhibition Assay (Acetylated format); Kit used: Correlate-EIA cGMP kit Assay Design Inc., USA.
Nesiritide is known to elicit its biological activity via a cGMP second messenger system in vitro and in vivo. PC-12 cells were plated in Plain RPMI medium in 24-well plate and equilibrated at 37° C., 5% CO2 incubator for 2 hrs. Prestimulation medium (RPMI+0.1% BSA+0.1 mM IBMX) was added to cells for 10 mins. It was followed by the addition of different concentrations of Nesiritide for 30 mins at 37° C., 5% CO2 incubator. The cells were lysed with 0.1M HCL for 20 mins followed by 5-7 freeze-thaw cycles. The cell lysates were centrifuged in microfuge at 10000 rpm for 10 mins at 4° C. Protein concentration of the supernatant was estimated by Bradford's method. The supernatant from cell lysates was assayed for cGMP concentration (FIG. 13) using a cGMP kit (Assay Design Inc). The cGMP from cell lysates was estimated from cGMP standard curve. ED50 value was calculated.

Substance	cGMP levels (Nesiritide Conc 25 nM)	cGMP levels (Nesiritide Conc 50 nM)	cGMP levels (Nesiritide Conc 75 nM)	cGMP levels (Nesiritide Conc 100 nM)	cGMP levels (Nesiritide Conc 150 nM)	cGMP levels (Nesiritide Conc 200 nM)
USV B. No 5406: batch of recombinant nesiritide of the present invention (Seq. ID NO:2)	0.133 ± 0.004 pmol/mL	0.161 ± 0.01 pmol/mL	0.383 ± 0.02 pmol/mL	0.444 ± 0.06 pmol/mL	0.799 ± 0.08 pmol/mL	1.214 ± 0.06 pmol/mL
USV B. No 5606: batch of recombinant nesiritide of the present invention (Seq. ID NO:2)	0.119 ± 0.01 pmol/mL	0.150 ± 0.03 pmol/mL	0.321 pmol/mL	0.475 ± 0.01 pmol/mL	0.787 ± 0.07 pmol/mL	1.006 ± 0.05 pmol/mL
USV B. No 5706: batch of recombinant nesiritide of the present invention (Seq. ID NO:2)	0.114 ± 0.005 pmol/mL	0.191 ± 0.01 pmol/mL	0.305 ± 0.05 pmol/mL	0.478 ± 0.06 pmol/mL	0.756 ± 0.02 pmol/mL	1.085 ± 0.06 pmol/mL
b-type natriuretic peptide (1-32) [Bachem, reference compound]	0.121 ± 0.006 pmol/mL	0.164 ± 0.05 pmol/mL	0.327 ± 0.05 pmol/mL	0.502 ± 0.05 pmol/mL	0.793 ± 0.02 pmol/mL	1.206 ± 0.08 pmol/mL
